Experimental data: ChEMBL document CHEMBL6134827, “The discovery of novel antimicrobial peptides against drug-resistant bacteria based on fragments fusion strategy” (Eur J Med Chem, 2025)
Starred links: 1 amine or outer side, 2 acyl side, 3 side chain; linkers in the order of their positions; H or OH if unused. Non-standard residues stand in square brackets, D forms with d. Residues, ends and D or L forms follow the SMILES beside them. εLys = N[C@@H](CCCCN[*:1])C(=O)[*:2]; Dab = NCC[C@H](N)C(=O)O

How the values were obtained:
Format in all cases: functional
[1] = tested on: Staphylococcus aureus; test: Antimicrobial activity against multidrug resistant Staphylococcus aureus assessed as inhibition of visible microbial growth incubated for 18 hrs by broth microdilution method
[2] = tested on: Staphylococcus aureus; test: Antimicrobial activity against Staphylococcus aureus ATCC 29213 assessed as inhibition of visible microbial growth incubated for 18 hrs by broth microdilution method
[3] = tested on: Escherichia coli; test: Antimicrobial activity against multidrug resistant Escherichia coli assessed as inhibition of visible microbial growth incubated for 18 hrs by broth microdilution method
[4] = tested on: Pseudomonas aeruginosa; test: Antimicrobial activity against multidrug resistant Pseudomonas aeruginosa assessed as inhibition of visible microbial growth incubated for 18 hrs by broth microdilution method
[5] = tested on: Escherichia coli; test: Antimicrobial activity against Escherichia coli ATCC 25922 assessed as inhibition of visible microbial growth incubated for 18 hrs by broth microdilution method
[6] = tested on: Acinetobacter baumannii; test: Antimicrobial activity against multidrug resistant Acinetobacter baumannii assessed as inhibition of visible microbial growth incubated for 18 hrs by broth microdilution method

| SMILES | MIC [1] | MIC [2] | MIC [3] | MIC [4] | MIC [5] | MIC [6] |
| --- | --- | --- | --- | --- | --- | --- |
| CC(C)C[C@H](NC(=O)CN)C(=O)N[C@@H](CCCNC(=N)N)C(=O)N[C@H](CCCCN)C(=O)N[C@@H](Cc1c[nH]c2ccccc12)C(=O)N[C@@H](CC(C)C)C(=O)N[C@@H](CCCNC(=N)N)C(=O)N[C@@H](CCN)C(=O)N[C@@H](Cc1ccccc1)C(=O)N[C@@H](CCCCN)C(=O)N[C@@H](CCCCN)C(=O)N[C@@H](Cc1ccccc1)C(=O)N[C@@H](Cc1c[nH]c2ccccc12)C(=O)O | 18.1 µM | 18.1 µM | 9.1 µM | 4.5 µM | 18.1 µM | 4.5 µM |
| CC(C)C[C@H](NC(=O)CN)C(=O)N[C@@H](CCCNC(=N)N)C(=O)N[C@@H](CCCCN)C(=O)N[C@@H](Cc1c[nH]c2ccccc12)C(=O)N[C@@H](CC(C)C)C(=O)N[C@@H](CCCNC(=N)N)C(=O)N[C@@H](CCCCN)C(=O)N[C@@H](Cc1ccccc1)C(=O)N[C@@H](CCCCN)C(=O)N[C@@H](CCN)C(=O)N[C@@H](Cc1ccccc1)C(=O)N[C@@H](Cc1c[nH]c2ccccc12)C(=O)O (H-GLRKWLRKFK[Dab]FW-OH) | 18.1 µM | 9.1 µM | 4.5 µM | 4.5 µM | 9.1 µM | 4.5 µM |
| CC(C)C[C@H](NC(=O)CN)C(=O)N[C@@H](CCCNC(=N)N)C(=O)N[C@@H](CCCCN)C(=O)N[C@@H](Cc1c[nH]c2ccccc12)C(=O)N[C@@H](CC(C)C)C(=O)N[C@@H](CCCNC(=N)N)C(=O)N[C@@H](CCCCN)C(=O)N[C@@H](Cc1ccccc1)C(=O)N[C@@H](CCCCN)C(=O)NCCCC[C@H](N)C(=O)N[C@@H](Cc1ccccc1)C(=O)N[C@@H](Cc1c[nH]c2ccccc12)C(=O)O (H-GLRKWLRKFK[εLys]FW-OH) | 17.9 µM | 17.9 µM | 35.7 µM | 8.9 µM | 4.5 µM | 17.9 µM |
| CC(C)C[C@H](NC(=O)CN)C(=O)N[C@@H](CCCNC(=N)N)C(=O)N[C@@H](CCCCN)C(=O)N[C@@H](Cc1c[nH]c2ccccc12)C(=O)N[C@@H](CC(C)C)C(=O)N[C@@H](CCCNC(=N)N)C(=O)N[C@@H](CCCCN)C(=O)N[C@@H](Cc1ccccc1)C(=O)N[C@@H](CCN)C(=O)N[C@@H](CCCCN)C(=O)N[C@@H](Cc1ccccc1)C(=O)N[C@@H](Cc1c[nH]c2ccccc12)C(=O)O (H-GLRKWLRKF[Dab]KFW-OH) | 18.1 µM | 18.1 µM | 4.5 µM | 4.5 µM | 9.1 µM | 4.5 µM |
| CC(C)C[C@H](NC(=O)CN)C(=O)N[C@@H](CCCNC(=N)N)C(=O)N[C@@H](CCCCN)C(=O)N[C@@H](Cc1c[nH]c2ccccc12)C(=O)N[C@@H](CC(C)C)C(=O)N[C@@H](CCCNC(=N)N)C(=O)N[C@@H](CCCCN)C(=O)N[C@@H](Cc1ccccc1)C(=O)N[C@@H](CCN)C(=O)N[C@@H](CCN)C(=O)N[C@@H](Cc1ccccc1)C(=O)N[C@@H](Cc1c[nH]c2ccccc12)C(=O)O (H-GLRKWLRKF[Dab][Dab]FW-OH) | 9.2 µM | 18.4 µM | 9.2 µM | 4.6 µM | 9.2 µM | 4.6 µM |
| CC(C)C[C@H](NC(=O)CN)C(=O)N[C@@H](CCCNC(=N)N)C(=O)N[C@@H](CCCCN)C(=O)N[C@@H](Cc1c[nH]c2ccccc12)C(=O)N[C@@H](CC(C)C)C(=O)N[C@@H](CCCNC(=N)N)C(=O)N[C@@H](CCCCN)C(=O)N[C@@H](Cc1ccccc1)C(=O)NCCCC[C@H](N)C(=O)N[C@@H](CCCCN)C(=O)N[C@@H](Cc1ccccc1)C(=O)N[C@@H](Cc1c[nH]c2ccccc12)C(=O)O (H-GLRKWLRKF[εLys]KFW-OH) | 17.9 µM | 17.9 µM | 35.7 µM | 8.9 µM | 8.9 µM | 17.9 µM |
